Source: PMC8580319, “Dual activities of ACC synthase: Novel clues regarding the molecular evolution of ACS genes” (Science Advances, 2021)

How the values were obtained:
Assay in all cases: pyruvate formation, […],4-dinitrophenylhydrazine, A520
Format in all cases: biochemical
Settings in all cases: Cβ-S lyase activity; 4 mM L-cystine, 100 μM PLP, 30°C
[1] = target: T1, AtACS8 (Arabidopsis thaliana, UniProt Q9T065)
T1 construct: gene ACS8; recombinant, His or GST tag, from E. coli
T1 sequence (Q9T065 1-469): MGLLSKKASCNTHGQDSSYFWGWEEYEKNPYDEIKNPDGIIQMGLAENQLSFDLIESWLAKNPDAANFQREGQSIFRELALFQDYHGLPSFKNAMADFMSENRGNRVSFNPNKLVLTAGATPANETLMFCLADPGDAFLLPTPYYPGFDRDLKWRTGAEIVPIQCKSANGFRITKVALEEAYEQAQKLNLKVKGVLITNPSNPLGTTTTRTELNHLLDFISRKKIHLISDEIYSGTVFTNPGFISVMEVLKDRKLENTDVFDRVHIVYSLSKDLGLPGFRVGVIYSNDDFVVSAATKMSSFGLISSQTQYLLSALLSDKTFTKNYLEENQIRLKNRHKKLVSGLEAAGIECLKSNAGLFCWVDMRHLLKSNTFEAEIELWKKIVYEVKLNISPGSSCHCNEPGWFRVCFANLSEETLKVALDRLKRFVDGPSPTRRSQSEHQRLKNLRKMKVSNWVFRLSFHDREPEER

[2] = target: T2, GmACS7-like (Glycine max, UniProt I1K634)
T2 construct: gene LOC100799562; recombinant, His or GST tag, from E. coli
T2 sequence (I1K634 1-440): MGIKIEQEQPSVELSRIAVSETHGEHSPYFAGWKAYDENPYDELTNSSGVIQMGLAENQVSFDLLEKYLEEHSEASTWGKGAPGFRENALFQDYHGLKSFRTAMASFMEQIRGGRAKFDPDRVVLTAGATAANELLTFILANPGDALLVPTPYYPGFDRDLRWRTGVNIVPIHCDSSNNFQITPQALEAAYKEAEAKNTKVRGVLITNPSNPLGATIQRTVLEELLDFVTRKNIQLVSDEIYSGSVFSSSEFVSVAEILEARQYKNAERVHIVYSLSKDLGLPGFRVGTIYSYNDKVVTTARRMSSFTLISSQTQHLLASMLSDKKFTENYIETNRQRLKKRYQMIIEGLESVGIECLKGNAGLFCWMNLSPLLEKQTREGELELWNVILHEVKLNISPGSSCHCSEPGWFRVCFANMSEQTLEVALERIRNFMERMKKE

[3] = target: T3, AtACS7 (Arabidopsis thaliana, UniProt Q9STR4, Q98A)
T3 construct: gene ACS7; recombinant from E. coli Rosetta 2 (DE3) pLysS; pET-28a (His) or pGEX-6p-1 (GST); His-tagged protein for crystals; dimer
T3 sequence (Q9STR4 1-447 Q98A): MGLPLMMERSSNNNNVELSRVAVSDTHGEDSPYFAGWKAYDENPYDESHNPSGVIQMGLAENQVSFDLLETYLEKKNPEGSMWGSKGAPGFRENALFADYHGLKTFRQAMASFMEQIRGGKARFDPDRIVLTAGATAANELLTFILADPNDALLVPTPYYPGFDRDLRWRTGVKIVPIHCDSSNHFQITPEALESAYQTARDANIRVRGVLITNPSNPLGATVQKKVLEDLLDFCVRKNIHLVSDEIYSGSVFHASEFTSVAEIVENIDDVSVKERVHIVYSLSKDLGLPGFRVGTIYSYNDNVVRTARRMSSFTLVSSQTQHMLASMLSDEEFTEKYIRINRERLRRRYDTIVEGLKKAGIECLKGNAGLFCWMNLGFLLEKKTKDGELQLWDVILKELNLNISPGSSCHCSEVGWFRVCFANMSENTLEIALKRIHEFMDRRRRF

[4] = target: T4, AtACS6 (Arabidopsis thaliana, UniProt Q9SAR0)
T4 construct: gene ACS6; recombinant, His or GST tag, from E. coli
T4 sequence (Q9SAR0 1-495): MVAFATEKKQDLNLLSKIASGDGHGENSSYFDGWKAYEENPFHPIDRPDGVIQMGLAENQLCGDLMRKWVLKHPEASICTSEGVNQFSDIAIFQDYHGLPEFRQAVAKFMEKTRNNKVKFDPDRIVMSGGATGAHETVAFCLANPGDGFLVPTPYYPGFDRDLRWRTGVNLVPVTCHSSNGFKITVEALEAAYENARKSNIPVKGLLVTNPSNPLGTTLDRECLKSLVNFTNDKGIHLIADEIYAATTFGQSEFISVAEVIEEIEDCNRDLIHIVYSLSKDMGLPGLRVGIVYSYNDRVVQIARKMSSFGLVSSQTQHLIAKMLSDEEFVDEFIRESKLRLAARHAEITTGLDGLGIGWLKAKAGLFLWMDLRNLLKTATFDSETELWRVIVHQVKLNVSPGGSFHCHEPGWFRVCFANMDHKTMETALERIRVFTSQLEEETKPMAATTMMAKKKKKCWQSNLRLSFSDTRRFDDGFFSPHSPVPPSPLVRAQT

[5] = target: T5, OsACS1 (Oryza sativa, UniProt A2XLL2)
T5 construct: gene ACC1; recombinant, His or GST tag, from E. coli
T5 sequence (A2XLL2 1-487): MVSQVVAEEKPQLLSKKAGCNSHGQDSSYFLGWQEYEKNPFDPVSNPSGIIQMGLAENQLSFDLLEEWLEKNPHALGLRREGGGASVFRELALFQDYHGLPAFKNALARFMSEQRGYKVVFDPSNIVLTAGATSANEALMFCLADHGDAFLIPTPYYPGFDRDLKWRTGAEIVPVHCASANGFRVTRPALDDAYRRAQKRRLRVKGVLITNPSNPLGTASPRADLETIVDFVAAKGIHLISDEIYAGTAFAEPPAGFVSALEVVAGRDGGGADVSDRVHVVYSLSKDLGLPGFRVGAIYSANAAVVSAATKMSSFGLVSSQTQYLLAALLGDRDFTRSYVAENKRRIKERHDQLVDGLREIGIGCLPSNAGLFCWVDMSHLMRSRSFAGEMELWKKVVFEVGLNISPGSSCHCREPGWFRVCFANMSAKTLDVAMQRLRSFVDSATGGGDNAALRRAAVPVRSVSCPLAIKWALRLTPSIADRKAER

## N[C@@H](CSSC[C@H](N)C(=O)O)C(=O)O [L-cystine]
[1]
  pyruvate formation, 2,4-dinitrophenylhydrazine, A520: all of them had ACS and Cβ-S lyase dual enzymatic activities
[2]
  pyruvate formation, 2,4-dinitrophenylhydrazine, A520: all of them had ACS and Cβ-S lyase dual enzymatic activities
[3]
  pyruvate formation, 2,4-dinitrophenylhydrazine, A520: the mutant had high in vitro Cβ-S lyase activity
[4]
  pyruvate formation, 2,4-dinitrophenylhydrazine, A520: all of them had ACS and Cβ-S lyase dual enzymatic activities
[5]
  pyruvate formation, 2,4-dinitrophenylhydrazine, A520: all of them had ACS and Cβ-S lyase dual enzymatic activities
